Reference: US9073945B2, “Alpha-IIb-beta-3 inhibitors and uses thereof” (THE ROCKEFELLER UNIVERSITY, priority 2006, dated 2015)
Values belong to the compound of their own block, whether it stands above or below them. Positions of bridges follow the written chain, without caps; N, C: chain ends. Non-standard residues stand in square brackets, D forms with d. Residues, ends and D or L forms follow the SMILES beside them. hArg = N=C(N)NCCCC[C@H](N)C(=O)O; Mpa = O=C(O)CCS

What was measured:
purified αIIbβ3 [1] = target: T1, purified αIIbβ3 (Homo sapiens, UniProt P05106+P08514); assay: Priming of fibrinogen binding to purified αIIbβ3; conditions: eptifibatide 10 μM, RGDS 10 μM, Compounds 100 μM
T1 construct: purchased Enzyme Research Laboratories, South Bend, Ind
Protocol: (§1) Fibrinogen Binding to Purified αIIbβ3. The anti-β3 mAb 7H2 (10 μg/ml) is adsorbed to polystyrene microtiter plate wells overnight at 4° C., and wells are then blocked with 3.5% BSA for 1 h at 22° C. Purified αIIbβ3 (Enzyme Research Laboratories, South Bend, Ind.) is diluted in buffer A (50 mM Tris/HCl, 100 mM NaCl, 1 mM CaCl2, 1 mM MgCl2, 1% BSA, 0.0035% Triton X-100) to 10 μg/ml, and is allowed to adhere to wells coated with mAb 7H2 for 2 h at 37° C. Wells are then washed 3 times with buffer A. Fibrinogen, prepared in buffer A (20 μg/ml) in the presence or absence of mAb AP5 (60 μg/ml), is incubated in plate wells for 2 h at 37° C. with or without the Compounds or control solutions. Wells are washed 3 times with buffer A and then incubated with a horseradish peroxidase-conjugated polyclonal anti-fibrinogen antibody (1:1,000 in buffer A; DAKO, Glostrup, Denmark) for 1 h at 22° C. Wells are washed 3 times, 200 μl of a peroxidase substrate [3,3′,5,5′-tetramethylbenzidine (TMB), Sigma-Aldrich] is added, the reaction is terminated after 30 min by acidification with 50 μl 0.5 M H2SO4, and absorbance is determined at 450 nm. For priming experiments the procedure is the same except: 1) αIIbβ3 is allowed to adhere in the presence of either eptifibatide (10 μM), RGDS (10 μM; Rockefeller University Proteomics Resource Center), the Compounds (100 μM), or DMSO (1%); 2) wells are washed 10 times after αIIbβ3 adhesion; and 3) absorbance is determined at 655 nm after 10 min.

purified αIIbβ3 [2] = target: T1, purified αIIbβ3; assay: Fibrinogen binding to purified αIIbβ3; conditions: for effect of activating mAb AP5 on fibrinogen binding to purified αIIbβ3 in the presence of the substance: AP5 60 μg/ml
Protocol: as §1

[3] = tested on: platelets in citrated PRP; assay: Platelet aggregation in 96-well plates (secondary screen); format: cell-based, human; conditions: induced by 5 μM ADP; 16.6 μM compound
Protocol: Platelet Preparation from Peripheral Blood. After informed consent is obtained from healthy human donors who have not taken any medication known to inhibit platelet function for at least 7 days, peripheral venous blood is collected via a 19-gauge butterfly needle into tubes containing either a 10% volume of sodium citrate (3.8%), or a 15% volume of Acid-Citrate-Dextrose (ACD-A, 74.8 mM sodium citrate, 38 mM citric acid, 124 mM dextrose). Platelet-rich plasma (PRP) is prepared by centrifugation at 650 g for 4 minutes at 22° C. and is gently removed with a plastic pipette. Platelet-poor plasma (PPP) is prepared by further centrifugation of the remaining blood at 3000 g for 10 minutes at 22° C. Washed platelets (WP) are prepared by treating ACD-anticoagulated PRP with 1 μM PGE1, adding 0.10 vol ACD, and centrifuge at 1200 g for 8 min at 22° C. […] Platelet counts are determined with the automated particle counter (ADVIA 120 hematological analyzer Bayer).
Platelet Aggregation in 96-well Plates. […] A 66.6 μl sample of citrated PRP from volunteer blood donors is added to compound-containing wells, and plates are allowed to equilibrate to 37° C. in the plate reader (SpectraMax) for 10 minutes. […] Absorbance is measured at 563 nm every 10 seconds with shaking for 3 s between reads for 8 minutes. Percent aggregation is calculated as (AbsPRP−Abssample)/(AbsPRP−AbsPPP).

αIIbβ3 = target: T2, αIIbβ3 (Homo sapiens, UniProt P05106+P08514); assay: LIBS-specific mAb binding to resting platelets (flow cytometry); format: cell-based; conditions: compound 100 μM
T2 construct: endogenous in cells; host or cells: washed resting platelets from platelet-rich plasma
Protocol: mAb Binding. PRP anticoagulated with ACD is centrifuged at 1200 g for 8 min and is resuspended in HBMT containing 2 mM Ca^2+, 1 mmMg^2+. Platelet count is adjusted to 250,000/μl. Platelets are incubated with the Compounds (100 μM), tirofiban (100 μM), EDTA (10 mM), or 10E5 (10 μg/ml) for 15 min, at 37° C. Samples are incubated with Fluorescently-labeled monoclonal antibodies (PMI-1, LIBS-1, AP5, 7H2, 7E3, or 10E5; Alexa-488-conjugated, Invitrogen) at 20 μl, 5 μg/ml final concentration for 30 min at room temperature in the dark before diluting 1:10 for analysis on a FACSCalibur flow cytometer (Becton Dickson). Antibody binding is reported as the geometric mean fluorescence intensity; nonspecific binding is determined by adding a 50-fold excess of unlabeled antibody before adding labeled antibody.

[4] = tested on: platelets in citrated whole blood; assay: Platelet adhesion under shear stress (cone and plate); format: cell-based, human; conditions: preferred Compound 50 μM, tirofiban 10 μM; 1800 s^−1; n=3
Protocol: Platelet Adhesion Under Shear Stress. A cone and plate system (Diamed, Cressier, Switzerland) is used to assess the effect of the Compounds on platelet deposition under shear stress. 0.25 ml of citrated whole blood is incubated with nothing, DMSO (0.5%), the Compounds (50 μM), or tirofiban (10 μM) for 15 min at 22° C. and placed in polystyrene wells (16 mm diameter, Nunc). A constant uniform shear force of 1800 s^−1 was applied across the well using a teflon cone for 2 min at 22° C. Wells are washed with buffer, fixed with 1% paraformaldehyde, stained with Wright's Stain (Sigma-Aldrich), and analyzed for platelet adhesion using a 20× objective in an inverted microscope (IX51, Olympus, Center Valley, Pa.). Platelet adhesion is assessed by measuring the area occupied by platelets in each of four uniformly selected viewing areas in duplicate wells using image analysis software (SlideBook, Intelligent Imaging Innovations, Denver, Colo.).

[5] = tested on: αVβ3-expressing CS1 cells; assay: CS1 cell adhesion to vitronectin; format: cell-based; conditions: mAbs 20 μg/ml, compound 100 μM; Mg2+
Protocol: (§2) Platelet and Cell Adhesion. Platelets are prepared from ACD-anticoagulated blood as previously described. Cells, either CS1 (αVβ3-expressing) or HEK293 (αIIbβ3-expressing) are separated from culture media by centrifugation at 200 g, 4 min. Cells are resuspended in HBMT containing 1 mM MgCl2 (CS1 cells) and/or 2 mM CaCl2 (HEK293 cells). Polystyrene 96-well microtiter plates (Nunc) are coated with either fibrinogen (50 μg/ml), vitronectin (5 μg/ml), or collagen (33 μg/ml, rat tail type 1, Becton Dickson) for 1 h, and blocked with HBMT for at least 1 h. Platelets and cells are treated with compounds or control solutions for 15 min at 37° C. before they are added to the microtiter wells. After adhering for 1 h at either 22° C. (platelets) or 37° C. (cells), non-adherent platelets or cells are removed by washing 3 times with HBMT containing the same ion composition as the buffer used for adhesion. Adherent platelets or cells are quantified by their endogenous acid phosphatase activity on p-nitrophenyl phosphate (pNPP) (1 mg/ml in 0.1 M sodium citrate, 0.1% Triton X-100, pH 5.4). In other experiments, 8-chambered glass coverslips (Nunc) are coated with collagen (33 μg/ml) for 1 h at 22° C. Washed platelets are allowed to adhere for 1 h at 22° C. and the coverslips are stained with the Alexa-488-conjugated β3-specific mAb 7H2. […]

[6] = target: T3, HEK293 cells expressing αIIbβ3 (Homo sapiens, UniProt P05106+P08514); assay: HEK293 cell adhesion to fibrinogen; format: cell-based; conditions: compound 100 μM, fibrinogen 50 μg/ml, 2 mM Ca2+/1 mM Mg2+, read-out: inhibition of HEK293 cell adhesion to immobilized fibrinogen
T3 construct: expressed in transfected cells; host or cells: HEK293
Protocol: as §2

platelets [7] = assay: Platelet aggregation in aggregometer; format: cell-based, human; conditions: for IC50: Homo sapiens, Platelet
Protocol: Platelet Preparation from Peripheral Blood. After informed consent is obtained from healthy human donors who have not taken any medication known to inhibit platelet function for at least 7 days, peripheral venous blood is collected via a 19-gauge butterfly needle into tubes containing either a 10% volume of sodium citrate (3.8%), or a 15% volume of Acid-Citrate-Dextrose (ACD-A, 74.8 mM sodium citrate, 38 mM citric acid, 124 mM dextrose). Platelet-rich plasma (PRP) is prepared by centrifugation at 650 g for 4 minutes at 22° C. and is gently removed with a plastic pipette. Platelet-poor plasma (PPP) is prepared by further centrifugation of the remaining blood at 3000 g for 10 minutes at 22° C. Washed platelets (WP) are prepared by treating ACD-anticoagulated PRP with 1 μM PGE1, adding 0.10 vol ACD, and centrifuge at 1200 g for 8 min at 22° C. The platelet pellet is resuspended in HBMT. Platelet counts are determined with the automated particle counter (ADVIA 120 hematological analyzer Bayer).
Platelet Aggregation in Aggregometer. Citrated PRP is incubated with compounds or controls for 15 min 37° C. in 300-500 μl vols in glass aggregometer tubes. Agonists are added after 30 s equilibration in the aggregometer (Kowa) and light transmittance is measured for 8 min. Agonists include ADP, collagen (native type 1 collagen fibrils), restocetin, arachidonic acid, and thrombin receptor activating peptide [TRAP (SFLLRN)].

platelets [8] = assay: Fluorescent fibrinogen binding to platelets; format: cell-based; conditions: Homo sapiens, Platelet; AP5 60 μg/ml; read-out: IC50, fibrinogen binding to platelets induced by activating LIBS mAb AP5
Protocol: (§3) Fluorescent Fibrinogen Binding. Washed platelets at 250,000/μl or αIIbβ3-expressing HEK293 cells at 10×10^6/ml in HBMT with 2 mM Ca^2+/1 mM Mg^2+ are incubated with compounds or controls and 200 μg/ml fluorescent fibrinogen (Invitrogen) with or without 60 μg/ml of the activating mAb AP5 for 30 min at 22° C. in the dark. Unbound fibrinogen is removed by centrifugation at 1800 rpm for 3 min and the platelets are resuspended in HBMT before FACS analysis.

[9] = target: T4, αIIbβ3-expressing HEK293 cells (Homo sapiens, UniProt P05106+P08514); assay: Fluorescent fibrinogen binding to HEK293 cells; format: cell-based; conditions: AP5 60 μg/ml; n=3; read-out: IC50, AP5-induced fibrinogen binding to HEK293 cells
T4 construct: expressed in transfected cells; host or cells: HEK293
Protocol: as §3

T1 sequence (P08514 32-887 limits assumed): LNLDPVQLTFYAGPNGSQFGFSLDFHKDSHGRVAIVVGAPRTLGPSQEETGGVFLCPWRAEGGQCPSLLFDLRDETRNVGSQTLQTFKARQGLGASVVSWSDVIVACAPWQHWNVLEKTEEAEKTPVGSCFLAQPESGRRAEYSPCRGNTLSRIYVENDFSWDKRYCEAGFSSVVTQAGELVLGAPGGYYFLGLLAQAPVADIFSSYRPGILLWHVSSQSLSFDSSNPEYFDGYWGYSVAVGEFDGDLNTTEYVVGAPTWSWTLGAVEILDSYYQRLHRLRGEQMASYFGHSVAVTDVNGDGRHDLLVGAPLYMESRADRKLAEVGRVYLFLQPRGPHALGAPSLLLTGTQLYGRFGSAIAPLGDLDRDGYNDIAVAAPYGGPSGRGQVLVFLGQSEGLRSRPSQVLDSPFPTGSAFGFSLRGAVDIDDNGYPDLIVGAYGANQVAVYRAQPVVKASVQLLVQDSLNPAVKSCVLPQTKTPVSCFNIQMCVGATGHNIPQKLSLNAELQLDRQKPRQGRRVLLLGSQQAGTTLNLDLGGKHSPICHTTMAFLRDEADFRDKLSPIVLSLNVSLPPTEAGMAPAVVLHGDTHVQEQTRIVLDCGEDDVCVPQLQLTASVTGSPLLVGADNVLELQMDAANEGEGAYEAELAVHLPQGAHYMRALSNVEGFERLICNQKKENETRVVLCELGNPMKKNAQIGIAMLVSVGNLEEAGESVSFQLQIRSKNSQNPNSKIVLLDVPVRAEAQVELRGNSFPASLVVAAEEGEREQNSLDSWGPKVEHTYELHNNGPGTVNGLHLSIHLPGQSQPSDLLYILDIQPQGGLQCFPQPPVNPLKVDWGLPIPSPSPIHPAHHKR
T1 sequence (P08514 891-1039 partner limits assumed): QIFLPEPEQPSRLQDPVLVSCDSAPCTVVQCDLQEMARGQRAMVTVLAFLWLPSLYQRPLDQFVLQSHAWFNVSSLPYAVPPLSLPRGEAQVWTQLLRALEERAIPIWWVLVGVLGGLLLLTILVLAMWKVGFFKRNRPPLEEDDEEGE
T1 sequence (P05106 27-788): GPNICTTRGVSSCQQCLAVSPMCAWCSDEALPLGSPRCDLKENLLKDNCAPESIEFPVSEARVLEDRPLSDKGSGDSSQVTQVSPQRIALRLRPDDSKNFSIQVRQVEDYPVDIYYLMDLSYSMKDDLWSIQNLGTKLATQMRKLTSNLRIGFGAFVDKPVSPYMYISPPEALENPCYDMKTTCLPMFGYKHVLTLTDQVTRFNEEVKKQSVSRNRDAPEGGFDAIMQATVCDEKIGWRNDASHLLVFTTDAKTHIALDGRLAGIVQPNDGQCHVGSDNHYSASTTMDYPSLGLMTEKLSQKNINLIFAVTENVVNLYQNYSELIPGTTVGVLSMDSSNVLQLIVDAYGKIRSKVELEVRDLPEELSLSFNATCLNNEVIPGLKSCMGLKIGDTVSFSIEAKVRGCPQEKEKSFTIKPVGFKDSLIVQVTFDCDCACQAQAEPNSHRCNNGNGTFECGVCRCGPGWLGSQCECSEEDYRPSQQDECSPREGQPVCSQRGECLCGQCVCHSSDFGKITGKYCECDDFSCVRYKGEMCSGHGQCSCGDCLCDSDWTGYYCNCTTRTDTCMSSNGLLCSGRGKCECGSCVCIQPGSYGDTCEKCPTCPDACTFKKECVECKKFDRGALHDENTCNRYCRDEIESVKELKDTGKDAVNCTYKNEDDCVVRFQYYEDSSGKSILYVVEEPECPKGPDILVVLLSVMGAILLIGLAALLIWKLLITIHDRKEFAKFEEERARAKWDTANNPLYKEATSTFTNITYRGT
T2 sequence (P08514 32-887 limits assumed): as the sequence (P08514 32-887 limits assumed) above
T2 sequence (P08514 891-1039 partner limits assumed): as the sequence (P08514 891-1039 partner limits assumed) above
T2 sequence (P05106 27-788): as the sequence (P05106 27-788) above
T4 sequence (P08514 32-887 limits assumed): as the sequence (P08514 32-887 limits assumed) above
T4 sequence (P08514 891-1039 partner limits assumed): as the sequence (P08514 891-1039 partner limits assumed) above
T4 sequence (P05106 27-788): as the sequence (P05106 27-788) above
T3 sequence (P08514 32-887 limits assumed): as the sequence (P08514 32-887 limits assumed) above
T3 sequence (P08514 891-1039 partner limits assumed): as the sequence (P08514 891-1039 partner limits assumed) above
T3 sequence (P05106 27-788): as the sequence (P05106 27-788) above

fibrinogen binding after transient exposure of αIIbβ3 (priming), compared to untreated αIIbβ3 (purified αIIbβ3 [1]): 150±31%
Compound: N=C(N)NCCCC[C@@H]1NC(=O)CCSSC[C@@H](C(N)=O)NC(=O)[C@@H]2CCCN2C(=O)[C@H](Cc2c[nH]c3ccccc23)NC(=O)[C@H](CC(=O)O)NC(=O)CNC1=O [eptifibatide] ([Mpa][hArg]GDWPC-NH2; disulfide 1-7)

fibrinogen binding after transient exposure of αIIbβ3 (priming), compared to untreated αIIbβ3 (purified αIIbβ3 [1]): 130±7%
Compound: RGDS

Compound: CCc1nn2c(=O)cc(N3CCNCC3)nc2s1 [Preferred Compound, 2-ethyl-7-(piperazin-1-yl)-5H-[1,3,4]thiadiazolo-[3,2-a]pyrimidin-5-one]
effect of activating mAb AP5 on fibrinogen binding to purified αIIbβ3 in the presence of the substance (purified αIIbβ3 [2]): does not increase
fibrinogen binding to purified αIIbβ3 in the presence of the substance (purified αIIbβ3 [2]; microtiter plates): blocked
IC50 (purified αIIbβ3 [2]; microtiter plates, n=3): 1.6 ± 0.4 µM
reduction of the initial slope of aggregation [3]: 84%
binding of β3 LIBS-specific mAb AP5 compared with untreated platelets (αIIbβ3): do not differ significantly
binding of β3 LIBS-specific mAb LIBS-1 compared with untreated platelets (αIIbβ3): do not differ significantly
mAb Binding (% of tirofiban), AP5 (β3) (αIIbβ3; resting washed platelets): 26 ± 5.9 % of tirofiban
mAb Binding (% of tirofiban), LIBS-1 (β3) (αIIbβ3; resting washed platelets): 5.7 ± 6.3 % of tirofiban
mAb Binding (% of tirofiban), PMI-1 (αIIb) (αIIbβ3; resting washed platelets): 44 ± 8.7 % of tirofiban
mAb Binding (% of tirofiban), PMI-1 (αIIb) (αIIbβ3; resting washed platelets, listed as 2-ethyl-7-(piperazin-1-yl)-5H-[1,3,4]thiadiazolo-[3,2-a]pyrimidin-5-one): 44 % of tirofiban
fibrinogen binding after transient exposure of αIIbβ3 (priming), compared to untreated αIIbβ3 (purified αIIbβ3 [1]): does not increase
inhibition of platelet deposition under shear, area occupied by platelets vs DMSO [4]: 87±10%
CS1 cell adhesion to immobilized vitronectin [5]: adhere
inhibition at 100 µM [6]: 53 ± 4%
IC50 (platelets [7]; induced by 5 μM ADP, read-out: IC50, aggregation of platelets in citrated PRP): 13 ± 5 µM
IC50 (platelets [7]; induced by 5 μM TRAP, n=3, read-out: IC50, aggregation of washed platelets): 3.4 ± 0.4 µM
IC50 (platelets [7]; induced by 5 μM TRAP, read-out: IC50, aggregation of platelets in citrated PRP): 29 ± 6 µM
IC50 (platelets [7]; induced by 1 mM arachidonic acid, read-out: IC50, aggregation of platelets in citrated PRP): 8.5 ± 5.7 µM
platelet aggregation in PRP induced by collagen (platelets [7]; compound 100 μM, collagen 2 μg/ml): completely inhibits
later phase of ristocetin-induced aggregation of PRP (platelets [7]; ristocetin 1.8 mg/ml, data not shown): does inhibit
initial slope (initial wave) of ristocetin-induced agglutination/aggregation of PRP (platelets [7]; ristocetin 1.8 mg/ml, mAb 6D1 20 μg/ml): does not inhibit
IC50 (platelets [8]): 29 ± 2 µM
IC50 [9]: 21 ± 0.3 µM

effect of activating mAb AP5 on fibrinogen binding to purified αIIbβ3 in the presence of the substance (purified αIIbβ3 [2]): does not increase
fibrinogen binding to purified αIIbβ3 in the presence of the substance (purified αIIbβ3 [2]; microtiter plates): blocked
Compound: CCCCS(=O)(=O)N[C@@H](Cc1ccc(OCCCCC2CCNCC2)cc1)C(=O)O [tirofiban, reference compound]
inhibition of platelet deposition under shear, area occupied by platelets vs DMSO [4]: 99±1%
